For one assay, the target named is EGFR wild type (EGFR WT) (Homo sapiens (Human), UniProt P00533). Description: Cellular Phosphorylation Assay, Assay 5 (EGF-stimulated EGFR phosphorylation, NIH 3T3 cells). The assay is classed as cell-based.
A further assay addresses EGFR (Homo sapiens (Human), UniProt P00533). Description: ErbB Enzyme Assay (HTRF KinEASE-TK), Assay 3. The format is biochemical. (In TR-FRET formats the signal depends on donor and acceptor labels being close together.)
A further assay deals with ErbB2 WT (Homo sapiens (Human), UniProt P04626). Description: ErbB Enzyme Assay (HTRF KinEASE-TK), Assay 2. The assay is classed as biochemical.
Sequence of ErbB2 WT (P04626 23-1255): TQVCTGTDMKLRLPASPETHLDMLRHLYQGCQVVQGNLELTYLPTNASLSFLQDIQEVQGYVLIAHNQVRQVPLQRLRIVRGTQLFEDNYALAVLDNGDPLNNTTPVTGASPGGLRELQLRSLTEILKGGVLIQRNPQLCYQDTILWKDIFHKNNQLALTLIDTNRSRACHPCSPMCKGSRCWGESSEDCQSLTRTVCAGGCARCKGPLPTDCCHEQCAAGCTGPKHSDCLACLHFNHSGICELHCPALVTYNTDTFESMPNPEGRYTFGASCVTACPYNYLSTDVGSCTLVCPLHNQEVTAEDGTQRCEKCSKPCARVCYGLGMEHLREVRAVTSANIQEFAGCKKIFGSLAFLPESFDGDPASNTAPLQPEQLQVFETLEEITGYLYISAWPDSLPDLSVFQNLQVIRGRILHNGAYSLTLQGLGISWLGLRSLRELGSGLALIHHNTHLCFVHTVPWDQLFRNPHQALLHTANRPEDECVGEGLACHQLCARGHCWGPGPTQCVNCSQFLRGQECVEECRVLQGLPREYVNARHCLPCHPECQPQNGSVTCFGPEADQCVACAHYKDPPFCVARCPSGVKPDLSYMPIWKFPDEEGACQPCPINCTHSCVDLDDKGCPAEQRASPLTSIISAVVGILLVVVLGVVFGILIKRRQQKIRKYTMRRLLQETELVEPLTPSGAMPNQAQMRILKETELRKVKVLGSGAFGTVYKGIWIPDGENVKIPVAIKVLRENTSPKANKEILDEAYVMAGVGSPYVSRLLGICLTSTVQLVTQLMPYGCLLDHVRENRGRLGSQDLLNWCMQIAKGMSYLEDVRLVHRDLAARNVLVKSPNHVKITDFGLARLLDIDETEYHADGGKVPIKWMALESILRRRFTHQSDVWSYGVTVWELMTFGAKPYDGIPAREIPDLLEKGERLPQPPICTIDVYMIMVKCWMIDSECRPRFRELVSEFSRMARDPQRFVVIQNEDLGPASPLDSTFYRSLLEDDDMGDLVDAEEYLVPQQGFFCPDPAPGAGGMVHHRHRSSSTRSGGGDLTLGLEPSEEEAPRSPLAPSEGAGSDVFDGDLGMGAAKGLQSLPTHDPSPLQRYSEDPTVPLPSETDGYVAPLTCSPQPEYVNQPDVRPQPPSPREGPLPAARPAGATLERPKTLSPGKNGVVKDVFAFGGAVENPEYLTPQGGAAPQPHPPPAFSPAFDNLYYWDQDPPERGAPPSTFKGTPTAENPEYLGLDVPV
In assay [1] the target is ErbB2 with Exon 20 YVMA insertion (HER2-YVMA) (Homo sapiens (Human), UniProt P04626, INS775YVMA). Description: Cellular Phosphorylation Assay, Assay 4 (constitutive ErbB2 phosphorylation, NIH 3T3 cells). The format is cell-based.
Sequence of ErbB2 with Exon 20 YVMA insertion (HER2-YVMA) (P04626 other isoform, or with tags, fused parts or gaps ins YVMA behind 775): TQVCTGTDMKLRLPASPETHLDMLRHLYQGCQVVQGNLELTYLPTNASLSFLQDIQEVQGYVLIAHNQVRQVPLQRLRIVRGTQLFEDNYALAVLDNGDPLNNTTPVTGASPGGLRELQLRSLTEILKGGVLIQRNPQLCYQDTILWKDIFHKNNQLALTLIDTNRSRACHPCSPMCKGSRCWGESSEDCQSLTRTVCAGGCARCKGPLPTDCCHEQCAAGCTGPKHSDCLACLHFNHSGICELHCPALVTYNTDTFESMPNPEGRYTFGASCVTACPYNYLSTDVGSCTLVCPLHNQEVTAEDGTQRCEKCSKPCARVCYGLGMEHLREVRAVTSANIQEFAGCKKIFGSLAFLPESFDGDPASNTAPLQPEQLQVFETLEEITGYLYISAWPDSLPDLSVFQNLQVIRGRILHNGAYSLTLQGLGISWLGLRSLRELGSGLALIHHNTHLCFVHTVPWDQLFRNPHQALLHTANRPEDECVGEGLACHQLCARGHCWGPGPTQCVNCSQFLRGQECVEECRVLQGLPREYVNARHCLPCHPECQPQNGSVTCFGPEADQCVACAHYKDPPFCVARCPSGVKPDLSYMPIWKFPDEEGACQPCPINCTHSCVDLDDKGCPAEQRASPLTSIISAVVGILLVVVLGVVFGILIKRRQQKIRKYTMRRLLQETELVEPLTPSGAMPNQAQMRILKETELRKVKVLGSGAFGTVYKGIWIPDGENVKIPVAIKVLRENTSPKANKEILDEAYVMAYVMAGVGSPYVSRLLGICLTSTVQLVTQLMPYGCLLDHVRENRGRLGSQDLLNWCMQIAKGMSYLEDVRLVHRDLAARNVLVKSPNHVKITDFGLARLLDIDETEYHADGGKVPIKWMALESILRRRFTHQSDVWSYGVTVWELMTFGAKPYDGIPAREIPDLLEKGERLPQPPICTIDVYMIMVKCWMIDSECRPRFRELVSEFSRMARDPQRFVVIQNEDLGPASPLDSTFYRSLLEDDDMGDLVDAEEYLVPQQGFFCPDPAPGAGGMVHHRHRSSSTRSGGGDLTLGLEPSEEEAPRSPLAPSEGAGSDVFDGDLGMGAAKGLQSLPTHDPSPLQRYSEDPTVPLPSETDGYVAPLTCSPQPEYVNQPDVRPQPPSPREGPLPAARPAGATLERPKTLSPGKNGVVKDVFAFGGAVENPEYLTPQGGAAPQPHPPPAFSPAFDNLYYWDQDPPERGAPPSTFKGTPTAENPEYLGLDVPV
Setting [2] is: EGF-stimulated EGFR WT phosphorylation.
Where [3] appears, read: cellular EGFR WT phosphorylation, EGF-stimulated.
The mark [4] stands for this setting: cellular ErbB2 YVMA phosphorylation.

Sequence of EGFR (P00533 25-1210): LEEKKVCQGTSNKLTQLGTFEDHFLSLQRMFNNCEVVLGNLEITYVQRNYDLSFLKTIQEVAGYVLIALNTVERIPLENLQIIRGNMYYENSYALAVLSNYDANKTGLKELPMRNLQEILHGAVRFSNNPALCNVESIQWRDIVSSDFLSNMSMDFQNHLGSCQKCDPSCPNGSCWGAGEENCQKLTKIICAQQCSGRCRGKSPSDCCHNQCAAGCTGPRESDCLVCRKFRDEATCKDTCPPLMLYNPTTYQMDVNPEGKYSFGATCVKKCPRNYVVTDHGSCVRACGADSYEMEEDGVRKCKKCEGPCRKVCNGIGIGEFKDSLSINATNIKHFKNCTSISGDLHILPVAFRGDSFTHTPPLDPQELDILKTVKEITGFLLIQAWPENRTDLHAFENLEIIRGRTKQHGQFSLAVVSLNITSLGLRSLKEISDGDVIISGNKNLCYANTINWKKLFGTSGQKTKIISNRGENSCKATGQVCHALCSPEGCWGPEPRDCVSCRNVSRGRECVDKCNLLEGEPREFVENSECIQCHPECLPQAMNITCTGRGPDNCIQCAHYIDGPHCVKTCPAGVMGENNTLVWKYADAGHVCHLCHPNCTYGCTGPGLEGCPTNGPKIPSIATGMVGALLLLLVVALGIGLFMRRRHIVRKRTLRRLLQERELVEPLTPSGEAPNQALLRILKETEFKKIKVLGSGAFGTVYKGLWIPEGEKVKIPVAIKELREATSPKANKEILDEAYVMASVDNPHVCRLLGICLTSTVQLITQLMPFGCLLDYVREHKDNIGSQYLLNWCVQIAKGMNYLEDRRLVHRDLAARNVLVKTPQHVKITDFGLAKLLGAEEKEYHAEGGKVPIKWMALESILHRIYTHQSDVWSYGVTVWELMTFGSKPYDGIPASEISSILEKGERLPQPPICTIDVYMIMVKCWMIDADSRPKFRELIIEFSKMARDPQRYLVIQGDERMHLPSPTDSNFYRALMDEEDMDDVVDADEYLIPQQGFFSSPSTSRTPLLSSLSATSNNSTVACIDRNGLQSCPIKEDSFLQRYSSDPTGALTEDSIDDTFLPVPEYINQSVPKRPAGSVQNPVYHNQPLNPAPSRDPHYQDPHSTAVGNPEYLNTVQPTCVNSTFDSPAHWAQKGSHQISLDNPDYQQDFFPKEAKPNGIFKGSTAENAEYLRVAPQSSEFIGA
Sequence of EGFR wild type (EGFR WT) (P00533 25-1210): as above

As usually defined, the IC50 is the concentration that gives 50% inhibition. Lower therefore signals greater potency in that assay. In the case of `C=CC(=O)N1CCCC[C@H](c2ccc3ncnc(Nc4ccc(Oc5ccc6c(c5)ncn6C)c(C)c4)c3n2)C1` (single isomer, unassigned) [Example 172], the IC50 came to 1.96 µM against EGFR wild type (EGFR WT) (setting [2]), 0.72 µM against EGFR (EGFR enzyme), 0.0052 µM against ErbB2 WT (ErbB2 WT enzyme) and 0.0139 µM in assay [1] (ErbB2 YVMA phosphorylation).
Consider `C=CC(=O)N1CC[C@H](c2ccc3ncnc(Nc4ccc(Oc5cc(F)c6c(c5)ncn6C)c(C)c4)c3n2)CC1(C)C` (racemic) [Example 279], for which the half-maximal inhibitory concentration (IC50) against EGFR wild type (EGFR WT) (setting [3]) is no less than 5 µM; against EGFR (EGFR enzyme assay), no less than 10 µM; against ErbB2 WT (ErbB2 WT enzyme assay), 0.145 µM; in assay [1] (setting [4]), 0.0621 µM.
With `C=CC(=O)N1CCCN(c2ccc3ncnc(Nc4ccc(Oc5ccn6ncnc6c5)c(Cl)c4)c3n2)CC1` [Example 99, 1-(4-(4-((4-([1,2,4]triazolo[1,5-a]pyridin-7-yloxy)-3-chlorophenyl)amino)pyrido[3,2-d]pyrimidin-6-yl)-1,4-diazepan-1-yl)prop-2-en-1-one], the IC50 against EGFR wild type (EGFR WT) (setting [2]) is no less than 5 µM; against EGFR (EGFR enzyme), 5.84 µM; against ErbB2 WT (ErbB2 WT enzyme), 0.019 µM; in assay [1] (ErbB2 YVMA phosphorylation), 0.0352 µM.
Turning to `C=CC(=O)N1CCCC(c2ccc3ncnc(Nc4cc(Cl)c(Oc5ccn6ncnc6c5)cc4F)c3n2)CC1` (stereo not shown) [Example 400], the concentration for half-maximal inhibition (IC50) against EGFR wild type (EGFR WT) (setting [3]) was no less than 5 µM; against EGFR (EGFR enzyme assay), 3.24 µM; against ErbB2 WT (ErbB2 WT enzyme assay) it was 0.016 µM; in assay [1] (setting [4]), 0.0456 µM.
On the same counts, the results for `C=CC(=O)N1C[C@H]2CC[C@@H]1[C@@H](c1ccc3ncnc(Nc4cc(C)c(Oc5cnc6c(c5)ncn6C)cc4F)c3n1)C2` [Example 425] are no less than 5 µM, no less than 10 µM, 0.212 µM and 0.0505 µM.
In the case of `C=CC(=O)N1CCC(Sc2ccc3ncnc(Nc4ccc(Oc5ccn6ncnc6c5)c(C)c4F)c3n2)CC1` [Example 60, 1-(4-((4-((4-([1,2,4]triazolo[1,5-a]pyridin-7-yloxy)-2-fluoro-3-methylphenyl)amino)pyrido[3,2-d]pyrimidin-6-yl)thio)piperidin-1-yl)prop-2-en-1-one], the IC50 is 1.21 µM against EGFR wild type (EGFR WT) (setting [2]), no less than 10 µM on EGFR (EGFR enzyme), 0.0543 µM against ErbB2 WT (ErbB2 WT enzyme) and 0.0494 µM in assay [1] (ErbB2 YVMA phosphorylation).
Take `C=CC(=O)N1CCN(c2ccc3ncnc(Nc4ccc(Oc5cnc6c(c5)ncn6C)c(C)c4)c3n2)CC1(C)C` [Example 250]: the half-inhibitory concentration (IC50) at EGFR wild type (EGFR WT) (setting [3]) was 3.2 µM; on EGFR (EGFR enzyme assay), 4.12 µM; at ErbB2 WT (ErbB2 WT enzyme assay) it was 0.0279 µM; in assay [1] (setting [4]) it was 0.009 µM.
With `C=CC(=O)N1CCC(Oc2ccc3ncnc(Nc4ccc(Oc5cnc6cn(C)nc6c5)c(C)c4)c3n2)CC1` [Example 14, 1-(4-((4-((3-methyl-4-((2-methyl-2H-pyrazolo[4,3-b]pyridin-6-yl)oxy)phenyl)amino)pyrido[3,2-d]pyrimidin-6-yl)oxy)piperidin-1-yl)prop-2-en-1-one], the IC50 on EGFR wild type (EGFR WT) (setting [2]) was no less than 5 µM; on EGFR (EGFR enzyme) it was no less than 10 µM; at ErbB2 WT (ErbB2 WT enzyme) it was 0.432 µM; in assay [1] (ErbB2 YVMA phosphorylation), 0.0484 µM.
On the same counts, the results for `C=CC(=O)N1CCC(Oc2ccc3ncnc(Nc4ccc(Oc5cnn6ccnc6c5)c(C)c4F)c3n2)CC1` [Example 56, 1-(4-((4-((2-fluoro-4-(imidazo[1,2-b]pyridazin-7-yloxy)-3-methylphenyl)amino)pyrido[3,2-d]pyrimidin-6-yl)oxy)piperidin-1-yl)prop-2-en-1-one] are 0.374 µM, 1.44 µM, 0.233 µM and 0.0197 µM.
With `C=CC(=O)N1CCN(c2ccc3ncnc(Nc4ccc(Oc5cnc6c(c5)ncn6C)c(C)c4F)c3n2)CC12CC2` [Example 450], the IC50 against EGFR wild type (EGFR WT) (setting [3]) stood at 1.16 µM; against EGFR (EGFR enzyme assay), 0.48 µM; on ErbB2 WT (ErbB2 WT enzyme assay), 0.0673 µM; in assay [1] (setting [4]), 0.0098 µM.
`C=CC(=O)N1CC[C@H](c2ccc3ncnc(Nc4ccc(Oc5ccn6ncnc6c5)c(C)c4F)c3n2)CC1(C)C` (racemic) [Example 314]: the IC50 against EGFR wild type (EGFR WT) (setting [3]) is no less than 5 µM; against EGFR (EGFR enzyme assay), 5.55 µM; against ErbB2 WT (ErbB2 WT enzyme assay), 0.0594 µM; in assay [1] (setting [4]), 0.124 µM.
On the same counts, the results for `C=CC(=O)N1CC[C@H]2C[C@@H]1CN2c1ccc2ncnc(Nc3cc(Cl)c(Oc4ccn5ncnc5c4)cc3F)c2n1` [Example 439] are no less than 5 µM, no less than 10 µM, 0.147 µM and 0.933 µM.
`C=CC(=O)N1C[C@@H]2C[C@H]1CN2c1ccc2ncnc(Nc3ccc(Oc4ccn5ncnc5c4)c(Cl)c3F)c2n1` [Example 93, 1-((1S,4S)-5-(4-((4-([1,2,4]triazolo[1,5-a]pyridin-7-yloxy)-3-chloro-2-fluorophenyl)amino)pyrido[3,2-d]pyrimidin-6-yl)-2,5-diazabicyclo[2.2.1]heptan-2-yl)prop-2-en-1-one]: the IC50 against EGFR wild type (EGFR WT) (setting [2]) came to 0.0535 µM; against EGFR (EGFR enzyme), 0.137 µM; against ErbB2 WT (ErbB2 WT enzyme), 0.0126 µM; in assay [1] (ErbB2 YVMA phosphorylation) it was 0.0037 µM.
Consider `C=CC(=O)N1CCN(c2ccc3ncnc(Nc4cc(F)c(Oc5ccn6ncnc6c5)cc4F)c3n2)CC1(C)C` [Example 453], for which the IC50 on EGFR wild type (EGFR WT) (setting [3]) was no less than 5 µM; against EGFR (EGFR enzyme assay), no less than 10 µM; against ErbB2 WT (ErbB2 WT enzyme assay), 0.147 µM; in assay [1] (setting [4]), 0.0563 µM.
As for `C=CC(=O)N1C2CC1CN(c1ccc3ncnc(Nc4ccc(Oc5cnc6c(c5)ncn6C)c(C)c4F)c3n1)C2` [Example 438], the IC50 on EGFR wild type (EGFR WT) (setting [3]) is no less than 5 µM; on EGFR (EGFR enzyme assay), no less than 10 µM; against ErbB2 WT (ErbB2 WT enzyme assay), 0.352 µM; in assay [1] (setting [4]), 0.0098 µM.
With `C=CC(=O)N1CCC(Oc2ccc3ncnc(Nc4cc(Cl)c(Oc5ccc6cn(C)nc6c5)cc4Cl)c3n2)CC1` [Example 2, 1-(4-((4-((2,5-dichloro-4-((2-methyl-2H-indazol-6-yl)oxy)phenyl)amino)pyrido[3,2-d]pyrimidin-6-yl)oxy)piperidin-1-yl)prop-2-en-1-one], the IC50 was no less than 5 µM against EGFR wild type (EGFR WT) (setting [2]), no less than 10 µM against EGFR (EGFR enzyme), 1.29 µM on ErbB2 WT (ErbB2 WT enzyme) and 1.14 µM in assay [1] (ErbB2 YVMA phosphorylation).
With `C=CC(=O)N1CCN(c2ccc3ncnc(Nc4ccc(Oc5ccn6ncnc6c5)c(Cl)c4F)c3n2)C[C@@H]1C` [Example 90, (S)-1-(4-(4-((4-([1,2,4]triazolo[1,5-a]pyridin-7-yloxy)-3-chloro-2-fluorophenyl)amino)pyrido[3,2-d]pyrimidin-6-yl)-2-methylpiperazin-1-yl)prop-2-en-1-one], the IC50 against EGFR wild type (EGFR WT) (setting [2]) stood at 0.575 µM; on EGFR (EGFR enzyme), 0.519 µM; against ErbB2 WT (ErbB2 WT enzyme), 0.0134 µM; in assay [1] (ErbB2 YVMA phosphorylation) it was 0.0059 µM.
In the case of `C=CC(=O)N1C[C@@H]2C[C@H]1CC[C@@H]2c1ccc2ncnc(Nc3cc(C)c(Oc4ccn5ncnc5c4)cc3F)c2n1` [Example 380], the IC50 was no less than 5 µM at EGFR wild type (EGFR WT) (setting [3]), 5.68 µM on EGFR (EGFR enzyme assay), 0.0681 µM at ErbB2 WT (ErbB2 WT enzyme assay) and 0.125 µM in assay [1] (setting [4]).
As for `C=CC(=O)N1CCCCC(c2ccc3ncnc(Nc4ccc(Oc5ccn6ncnc6c5)c(C)c4)c3n2)C1` (stereo not shown) [Example 204, 1-(3-(4-((4-([1,2,4]triazolo[1,5-a]pyridin-7-yloxy)-3-methylphenyl)amino)pyrido[3,2-d]pyrimidin-6-yl)azepan-1-yl)prop-2-en-1-one], the half-maximal inhibitory concentration (IC50) came out at 2.94 µM against EGFR wild type (EGFR WT) (setting [2]), 0.9 µM against EGFR (EGFR enzyme), 0.0132 µM against ErbB2 WT (ErbB2 WT enzyme) and 0.0208 µM in assay [1] (ErbB2 YVMA phosphorylation).

Values taken from patent US12447153B2, “HER2 mutation inhibitors” (Array BioPharma Inc., priority 2021, dated 2025).
